Assay results taken from patent US20060014940A1, “Cloning and characterization of slc26a6, slc26a1, and slc26a2 anion exchangers” (priority 2002, published 2006).

Columns and labels:
[1] = molecular target: T1, mouse SLC26A6b (Mus musculus, UniProt Q8CIW6, R572P); test: Radiolabelled anion uptake/exchange in Xenopus oocytes expressing mouse SLC26A6b; assay type: cell-based; details: for cis-inhibition of SO4 2− transport / cis-inhibition of Cl−—Cl− exchange: 25 mM of the anion; for cis-inhibition of SO4 2− transport: 35SO4 uptake one hour (FIG. 7B); for cis-inhibition of Cl−—Cl− exchange: 36Cl− uptake one hour (FIG. 7A); for exchange of SO4 2− with extracellular anion (trans-stimulation of 35SO4 efflux): 10 mM of the anion, 30 minutes (FIG. 7C); for 36Cl− uptake: 8.3 mM 36Cl
T1 construct: Full-length mouse SLC26A6b and SLC26A 1 cDNAs were cloned into the Xenopus expression vector pGEMHE; expressed in transfected cells; host or cells: Xenopus laevis oocytes injected with in vitro transcribed cRNA (pGEMHE)
T1 sequence (Q8CIW6 24-758 R572P limits assumed): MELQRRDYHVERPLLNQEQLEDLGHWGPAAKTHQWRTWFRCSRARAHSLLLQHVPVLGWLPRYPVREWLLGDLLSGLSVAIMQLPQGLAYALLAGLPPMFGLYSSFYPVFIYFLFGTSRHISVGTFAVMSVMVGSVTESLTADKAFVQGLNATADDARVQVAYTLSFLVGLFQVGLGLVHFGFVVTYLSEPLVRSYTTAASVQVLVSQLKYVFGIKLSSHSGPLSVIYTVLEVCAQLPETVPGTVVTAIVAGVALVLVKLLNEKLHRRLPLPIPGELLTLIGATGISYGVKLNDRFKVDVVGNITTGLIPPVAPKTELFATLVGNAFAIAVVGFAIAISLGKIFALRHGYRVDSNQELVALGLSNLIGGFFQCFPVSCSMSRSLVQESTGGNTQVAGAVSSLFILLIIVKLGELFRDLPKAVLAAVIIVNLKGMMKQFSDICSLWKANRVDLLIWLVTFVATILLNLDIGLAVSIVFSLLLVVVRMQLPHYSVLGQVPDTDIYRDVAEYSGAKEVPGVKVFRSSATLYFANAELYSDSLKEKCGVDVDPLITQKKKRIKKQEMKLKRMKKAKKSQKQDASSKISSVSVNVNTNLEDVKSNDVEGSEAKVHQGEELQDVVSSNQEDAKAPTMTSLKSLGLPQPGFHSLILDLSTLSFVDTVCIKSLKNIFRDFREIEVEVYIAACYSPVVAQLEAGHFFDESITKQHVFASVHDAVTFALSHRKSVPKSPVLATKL
Protocol: (§1) Full-length mouse SLC26A6b and SLC26A 1 cDNAs were cloned into the Xenopus expression vector pGEMHE (Liman et al., 1992). The SLC26A6 and SLC26A1 expression constructs were linearized, and cRNA was transcribed in vitro using T7 RNA polymerase and a […] MMACHINE® transcription kit (Ambion, Inc. of Austin, Tex., United States of America). Defolliculated oocytes were injected with 25 nl to 50 nl of water or with a solution containing cRNA at a concentration of 0.5 μg/μl (12.5 ng to 25 ng per oocyte) using a Nanoliter-2000 injector (WPI Instruments of Sarasota, Fla., United States of America). Oocytes were incubated at 17° C. in 50% Leibovitz's L-15 media supplemented with penicillin/streptomycin (1000 units/ml) and glutamine for 2-3 days for uptake assays.
(§2) For sulphate uptake assays, oocytes were pre-incubated for 20 minutes in chloride-free uptake medium (100 mM NMDG gluconate, 2 mM potassium gluconate, 1 mM calcium gluconate, 1 mM magnesium gluconate, 10 mM HEPES-Tris, pH 6.0 or pH 7.5 as indicated), followed by a 60-minute period for uptake in the same medium supplemented with 1 mM K2^35SO4 (40 μCi/ml). The cells were then washed three times in uptake buffer with 5 mM cold K2SO4 to remove tracer activity in the extracellular fluid. The oocytes were dissolved individually in 10% SDS, and tracer activity was determined by scintillation counting. Uptake of chloride, formate, and oxalate was assayed using the same chloride-free uptake solutions, substituting 8.3 mM ^36Cl, 500 μM [^14C]oxalate, or 50 μM [^14C]formate for labeled sulphate.
(§3) For sulphate exchange and cis-inhibition experiments, the concentration of NMDG-gluconate in the uptake solution was adjusted to maintain isotonic osmolality, which was confirmed experimentally using a FISKE® osmometer (Fiske Associates, Inc. of Bethel, Conn., United States of America).

[2] = tested on: xPDS1; test: Anion transport in Xenopus oocytes expressing xPDS1; assay type: cell-based, Xenopus laevis
From the text: (§4) One or more of these xPDS genes likely corresponds to the Xenopus descendant of mammalian SLC26A3.

[3] = tested on: xSLC26A6; details: FIG. 17
From the text: as §4

[4] = tested on: xPDS3; test: Anion transport in Xenopus oocytes expressing xPDS3; assay type: cell-based, Xenopus laevis
From the text: as §4

[5] = molecular target: mouse SLC26A2 (Mus musculus, UniProt Q62273)
mouse SLC26A2, sequence (Q62273 whole entry): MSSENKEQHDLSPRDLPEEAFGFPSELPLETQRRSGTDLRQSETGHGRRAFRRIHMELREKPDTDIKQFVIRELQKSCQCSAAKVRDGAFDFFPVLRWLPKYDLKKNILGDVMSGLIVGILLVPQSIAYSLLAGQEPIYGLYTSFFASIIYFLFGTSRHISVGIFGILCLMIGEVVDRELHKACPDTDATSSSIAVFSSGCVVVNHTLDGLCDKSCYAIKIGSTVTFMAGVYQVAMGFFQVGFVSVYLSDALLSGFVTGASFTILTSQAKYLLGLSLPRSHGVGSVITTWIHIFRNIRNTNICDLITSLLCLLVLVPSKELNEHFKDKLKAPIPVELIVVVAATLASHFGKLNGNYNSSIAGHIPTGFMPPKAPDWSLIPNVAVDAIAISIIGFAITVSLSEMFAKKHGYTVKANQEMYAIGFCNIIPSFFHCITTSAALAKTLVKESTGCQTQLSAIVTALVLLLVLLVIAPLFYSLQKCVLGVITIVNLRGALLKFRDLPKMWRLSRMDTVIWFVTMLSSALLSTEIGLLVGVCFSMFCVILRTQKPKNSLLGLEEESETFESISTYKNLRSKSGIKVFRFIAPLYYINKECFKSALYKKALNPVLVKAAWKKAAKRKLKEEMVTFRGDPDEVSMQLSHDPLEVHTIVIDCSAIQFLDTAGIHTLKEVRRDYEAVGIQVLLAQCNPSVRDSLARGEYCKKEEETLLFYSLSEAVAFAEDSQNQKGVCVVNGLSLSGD
Protocol: as §2

[6] = molecular target: T2, mouse SLC26A1 (Mus musculus, UniProt P58735, C691Y); test: Radiolabelled anion uptake in Xenopus oocytes expressing mouse SLC26A1; assay type: cell-based; details: for effect of extracellular anion on SO4 2− transport via SLC26A1: 25 mM of the anion (FIG. 9A, 6C); for transport via SLC26A1: FIG. 6B, FIG. 8B
T2 construct: Full-length mouse SLC26A6b and SLC26A 1 cDNAs were cloned into the Xenopus expression vector pGEMHE; expressed in transfected cells; host or cells: Xenopus laevis oocytes injected with in vitro transcribed cRNA (pGEMHE)
T2 sequence (P58735 1-704 C691Y): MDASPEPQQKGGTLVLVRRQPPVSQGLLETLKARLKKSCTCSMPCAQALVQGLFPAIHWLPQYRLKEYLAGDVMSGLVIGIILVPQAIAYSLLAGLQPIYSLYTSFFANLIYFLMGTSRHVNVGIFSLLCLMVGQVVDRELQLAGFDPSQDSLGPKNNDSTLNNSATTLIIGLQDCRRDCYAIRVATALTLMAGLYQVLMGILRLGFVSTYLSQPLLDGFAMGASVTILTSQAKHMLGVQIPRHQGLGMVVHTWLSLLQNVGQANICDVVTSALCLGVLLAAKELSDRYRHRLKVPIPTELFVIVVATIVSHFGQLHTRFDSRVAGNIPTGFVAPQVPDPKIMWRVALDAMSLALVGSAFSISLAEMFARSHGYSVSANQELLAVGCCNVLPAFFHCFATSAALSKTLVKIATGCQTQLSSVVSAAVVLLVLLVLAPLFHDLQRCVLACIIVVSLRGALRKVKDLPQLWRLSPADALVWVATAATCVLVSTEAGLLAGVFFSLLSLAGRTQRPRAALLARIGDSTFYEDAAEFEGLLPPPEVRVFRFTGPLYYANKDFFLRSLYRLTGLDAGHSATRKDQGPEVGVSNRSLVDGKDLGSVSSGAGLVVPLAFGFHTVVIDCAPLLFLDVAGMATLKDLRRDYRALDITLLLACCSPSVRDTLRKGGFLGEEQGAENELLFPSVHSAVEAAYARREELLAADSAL
Protocol: as §1, §2, §3

[7] = tested on: xPDS2; test: Anion transport in Xenopus oocytes expressing xPDS2; assay type: cell-based, Xenopus laevis
From the text: as §4

[8] = tested on: human SLC26A6
From the text: FIG. 13 depicts chloride uptake in Xenopus oocytes expressing Xenopus xPDS2, human SLC26A3 (DRA), mouse Slc26a6, and human SLC26A6, with extracellular pH of 7.5 (open bars) or 6.0 (dark fill).
FIG. 15 depicts sulphate transport mediated by Xenopus oocytes expressing human SLC26A6, at varying concentrations of extracellular SO4^2− and constant amounts of tracer ^35SO4^2−.
A feature of the mammalian SLC26 gene family is relatively low conservation between orthologs in mouse and man; the percent amino acid identity ranges from a low of 76% (SLC26A8) to a high of 90% (SLC26A9), versus the reported median of 86% for mouse and human orthologous genes. Makalowski, W. & Boguski, 1998. This sequence divergence is reflected in functional variation, which can be exploited for structure-function analysis.

[9] = molecular target: T1, mouse SLC26A6b; test: Radiolabelled anion uptake/exchange in Xenopus oocytes expressing mouse SLC26A6b; assay type: cell-based; details: pH 7.4; DIDS 1 mM (FIG. 6A)
[10] = molecular target: rat SLC26A1 (Rattus norvegicus, UniProt P45380); details: Satoh et al., 1998; cited from earlier work
rat SLC26A1, sequence (P45380 whole entry): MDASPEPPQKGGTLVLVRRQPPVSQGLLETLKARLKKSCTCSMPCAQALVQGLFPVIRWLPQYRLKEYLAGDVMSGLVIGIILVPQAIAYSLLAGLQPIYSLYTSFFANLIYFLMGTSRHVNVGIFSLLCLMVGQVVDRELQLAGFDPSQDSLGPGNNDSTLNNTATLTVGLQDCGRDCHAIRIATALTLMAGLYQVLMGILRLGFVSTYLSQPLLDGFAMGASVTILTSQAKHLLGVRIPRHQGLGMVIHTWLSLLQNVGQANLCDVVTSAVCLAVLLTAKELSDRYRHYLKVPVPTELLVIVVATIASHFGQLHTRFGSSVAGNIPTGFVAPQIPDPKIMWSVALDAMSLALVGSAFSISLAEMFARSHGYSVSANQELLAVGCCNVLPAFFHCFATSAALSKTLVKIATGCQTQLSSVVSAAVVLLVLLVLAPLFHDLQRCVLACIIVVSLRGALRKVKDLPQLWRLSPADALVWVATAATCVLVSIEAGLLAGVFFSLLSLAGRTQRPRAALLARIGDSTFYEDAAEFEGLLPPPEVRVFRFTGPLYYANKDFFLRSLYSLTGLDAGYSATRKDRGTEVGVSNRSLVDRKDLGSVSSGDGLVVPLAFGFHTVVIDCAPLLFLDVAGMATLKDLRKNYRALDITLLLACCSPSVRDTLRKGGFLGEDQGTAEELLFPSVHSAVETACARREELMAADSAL

[11] = molecular target: SLC26A1 (Rattus norvegicus, UniProt P45380); details: Markovich & James, 1999; cited from earlier work
SLC26A1, sequence (P45380 whole entry): as above

Br [Br^−]
cis-inhibition of SO4 2− transport [1]: cis-inhibitory | cis-inhibition of Cl−—Cl− exchange [1]: cis-inhibitory

Cl [Cl^−, chloride]
Cl− transport ([2]; FIG. 17): robust | Cl− transport [3]: robust | exchange of SO4 2− with extracellular anion (trans-stimulation of 35SO4 efflux) [1]: clearly mediated exchange | 36Cl− uptake ([1]; pH 6.0): 4193±109 pmol/oocyte/hour | 36Cl− uptake ([1]; pH 7.4): 4345±243 pmol/oocyte/hour | Cl− transport ([4]; FIG. 17): robust | effect of extracellular Cl− on 35SO4 2− uptake ([5]; 25 mM Cl− (FIG. 10B)): significantly inhibited | effect of extracellular anion on SO4 2− transport via SLC26A1 [6]: much higher | transport via SLC26A1 [6]: not transported | Cl−—Cl− exchange ([6]; presence or absence of 25 mM SO4 2−): minimal | Cl− transport ([7]; FIG. 17): robust | Cl− transport ([8]; FIG. 13): clearly transports

O=S(=O)(O)c1cc(N=C=S)ccc1C=Cc1ccc(N=C=S)cc1S(=O)(=O)O [DIDS, 4,4′-diisothiocyanatostilbene-2,2′-disulfonic acid]
sulphate uptake, sensitivity to DIDS [9]: 301±24 pmol/oocyte/hour | sulphate uptake, sensitivity to DIDS ([1]; pH 6.0, DIDS 1 mM (FIG. 6A)): 101±10 pmol/oocyte/hour

O=C(O)O [HCO3^−, bicarbonate]
activation of SO4 2− uptake [10]: does not activate

I [I^−, iodide]
cis-inhibition of SO4 2− transport [1]: cis-inhibitory | cis-inhibition of Cl−—Cl− exchange [1]: cis-inhibitory

O=CO [formate]
formate uptake ([1]; 50 μM [14C]formate (FIG. 8B)): 45±5 pmol/oocyte/hour | exchange of SO4 2− with extracellular anion (trans-stimulation of 35SO4 efflux) [1]: clearly mediated exchange | cis-inhibition of Cl−—Cl− exchange [1]: significantly inhibited | effect of extracellular anion on SO4 2− transport via SLC26A1 [6]: activate | transport via SLC26A1 [6]: not transported | formate uptake ([6]; SLC26A1-injected oocytes): 7 pmol/oocyte/h

CC(O)C(=O)O (stereo not drawn) [lactate]
cis-inhibition of Cl−—Cl− exchange [1]: not lactate significantly inhibited | effect of extracellular anion on SO4 2− transport via SLC26A1 [6]: activate

O=S(=O)(O)O [sulphate]
SO4 2− transport [2]: none of the xPDS clones transport | exchange of SO4 2− with extracellular anion (trans-stimulation of 35SO4 efflux) [1]: clearly mediated exchange | cis-inhibition of Cl−—Cl− exchange [1]: significantly inhibited | sulphate uptake at pH 7.4 versus pH 6.0 ([1]; SLC26A6b-injected oocytes): not significantly altered | sulphate uptake independent of Na+ ([1]; SLC26A6b-injected oocytes, Na+-free): 652±57 pmol/oocyte/hour | sulphate uptake independent of Cl− ([1]; SLC26A6b-injected oocytes, pH 7.4, Cl−-free medium, 1 mM 35SO4): 602±0 pmol/oocyte/hour | absolute rate of SO4 2− transport ([1]; mouse Slc26a6, increasing extracellular SO4 2− (FIG. 14)): ~4,000 pmol/oocyte/hr | SO4 2− transport [4]: none of the xPDS clones transport | 35SO4 2− uptake ([5]; absence of extracellular Cl− (FIG. 10A)): robust | 35SO4 2− uptake at pH 6.0 ([5]; pH 6.0 versus pH 7.4 (FIG. 10A)): increased significantly | effect of extracellular anion on SO4 2− transport via SLC26A1 [6]: strongly cis-inhibitory | SO4 2− uptake ([6]; SLC26A1-injected oocytes (FIG. 6A)): 72±2 pmol/oocyte/h | SO4 2− transport [7]: none of the xPDS clones transport | absolute rate of SO4 2− transport ([8]; human SLC26A6, increasing extracellular SO4 2− (FIG. 15)): ~200 pmol/oocyte/hr

mercury
effect on maximal sulphate transport via SLC26A1 [11]: strongly inhibited
